In patent US11083725B2 (priority 2014, dated 2021):

Test system: NHBE cells
Assay: Biolog metabolic array: substrate use by NHBE cells with or without CA09 infection
Format: cell-based, human
[1] = Control (uninfected) NHBE cells
[2] = Virus (CA09-infected, MOI 1) NHBE cells
[3] = Virus: CA09-infected NHBE cells, MOI 1, Biolog PMM2

OC[C@H]1O[C@@H](O[C@H]2[C@H](O)[C@@H](O)[C@H](O)O[C@@H]2CO)[C@H](O)[C@@H](O)[C@@H]1O [D-Cellobiose]
590 nm absorbance normalized to zero hour (substrate use), 0 hr [1]: 1.00 | 590 nm absorbance normalized to zero hour (substrate use), 1 hr [1]: 1.74 | 590 nm absorbance normalized to zero hour (substrate use), 2 hr [1]: 2.30 | 590 nm absorbance normalized to zero hour (substrate use), 3 hr [1]: 2.69 | 590 nm absorbance normalized to zero hour (substrate use), 4 hr [1]: 2.91 | 590 nm absorbance normalized to zero hour (substrate use), 6 hr [1]: 4.52 | 590 nm absorbance normalized to zero hour (substrate use), 8 hr [1]: 4.59 | 590 nm absorbance normalized to zero hour (substrate use), 9 hr [1]: 5.13 | 590 nm absorbance normalized to zero hour (substrate use), 10 hr [1]: 5.20 | 590 nm absorbance normalized to zero hour (substrate use), 11 hr [1]: 5.51 | Substrate use, 590 nm absorbance normalized to zero hour, 0 hr (Control (uninfected) NHBE cells, Biolog PMM2, 0 hr): 1.00 | Substrate use, 590 nm absorbance normalized to zero hour, 1 hr (Control (uninfected) NHBE cells, Biolog PMM2, 1 hr): 1.74 | Substrate use, 590 nm absorbance normalized to zero hour, 5 hr (Control (uninfected) NHBE cells, Biolog PMM2, 5 hr): 3.55 | Substrate use, 590 nm absorbance normalized to zero hour, 7 hr (Control (uninfected) NHBE cells, Biolog PMM2, 7 hr): 4.26 | 590 nm absorbance normalized to zero hour (substrate use), 0 hr [2]: 1.00 | 590 nm absorbance normalized to zero hour (substrate use), 1 hr [2]: 1.58 | 590 nm absorbance normalized to zero hour (substrate use), 2 hr [2]: 2.09 | 590 nm absorbance normalized to zero hour (substrate use), 3 hr [2]: 2.38 | 590 nm absorbance normalized to zero hour (substrate use), 4 hr [2]: 2.49 | 590 nm absorbance normalized to zero hour (substrate use), 5 hr [2]: 2.81 | 590 nm absorbance normalized to zero hour (substrate use), 6 hr [2]: 3.00 | 590 nm absorbance normalized to zero hour (substrate use), 7 hr [2]: 3.14 | 590 nm absorbance normalized to zero hour (substrate use), 8 hr [2]: 3.31 | 590 nm absorbance normalized to zero hour (substrate use), 9 hr [2]: 3.54 | 590 nm absorbance normalized to zero hour (substrate use), 10 hr [2]: 3.69 | 590 nm absorbance normalized to zero hour (substrate use), 11 hr [2]: 4.06 | 590 nm absorbance normalized to zero hour (substrate use), 0 hr [3]: 1.00 | 590 nm absorbance normalized to zero hour (substrate use), 1 hr [3]: 1.58 | 590 nm absorbance normalized to zero hour (substrate use), 2 hr [3]: 2.09 | 590 nm absorbance normalized to zero hour (substrate use), 3 hr [3]: 2.38 | 590 nm absorbance normalized to zero hour (substrate use), 4 hr [3]: 2.49 | 590 nm absorbance normalized to zero hour (substrate use), 5 hr [3]: 2.81 | 590 nm absorbance normalized to zero hour (substrate use), 6 hr [3]: 3.00 | 590 nm absorbance normalized to zero hour (substrate use), 7 hr [3]: 3.14 | 590 nm absorbance normalized to zero hour (substrate use), 8 hr [3]: 3.31 | 590 nm absorbance normalized to zero hour (substrate use), 9 hr [3]: 3.54 | 590 nm absorbance normalized to zero hour (substrate use), 10 hr [3]: 3.69 | 590 nm absorbance normalized to zero hour (substrate use), 11 hr [3]: 4.06
